In the data set the test system is SUV39H2. Description: Quantitative real-time PCR of SUV39H2 expression after siRNA transfection. The format is cell-based, human. Particulars: A549 and SW780 cells; siRNA 100 nM; normalized by GAPDH, relative to siEGFP (siEGFP=1); vs control siRNAs siEGFP and siNC. In general terms: In qPCR the cycle at which signal appears reflects the starting amount.

“siSUV39H2#1: siRNA duplex targeting human SUV39H2; target 5' CUUUGGUUGUUCAUGCACA 3' (SEQ ID NO: 19); sense SEQ ID NO: 15, antisense SEQ ID NO: 16 (sense CUUUGGUUGUUCAUGCACATT; antisense UGUGCAUGAACAACCAAAGTT; chemistry not given here)”: the “SUV39H2 mRNA expression level” value is on record as “suppression of endogenous SUV39H2 expression”. Under “siSUV39H2#2: siRNA duplex targeting human SUV39H2; target 5' CUGGAAUCAGCUUAGUCAA 3' (SEQ ID NO: 20); sense SEQ ID NO: 17, antisense SEQ ID NO: 18 (sense CUGGAAUCAGCUUAGUCAATT; antisense UUGACUAAGCUGAUUCCAGTT; chemistry not given here)” stands “suppression of endogenous SUV39H2 expression”.
